Experimental data as given in patent EP4644403A1, “HALOGEN-CONTAINING COMPOUNDS USED FOR CAPPING THE 5' END OF NUCLEIC ACID AND USE THEREOF” (Shenzhen Rhegen Biotechnology Co., Ltd., priority 2023, dated 2024).

Molecular target: T1, T7 RNA polymerase (Escherichia phage T7, UniProt P00573)
T1 construct: purchased
Test: Capped mRNA synthesis by in vitro transcription with cap analog (product amount, Nanodrop One)
Type: biochemical
Conditions: per 1 mL reaction system; in vitro transcription at 37°C, 4 hours; purified mRNA quantified with Nanodrop One
Source text: • a) A plasmid was linearized and a DNA template was purified. • b) Capping analogs of the present invention and Comparative Example 1 Trilink CleanCap, cap analogs of Comparative Example 2 and Comparative Example 3 were used to synthesize mRNA by in vitro transcription, respectively. Comparative Example 1 was commercially purchased, and Comparative Example 2 and Comparative Example 3 were obtained according to the method disclosed in WO2022/036858. [drawing 172]
Table 1 In vitro transcription system
c) During the experiment, the above reagents were fully mixed and incubated at 37°C. After 4 hours, deoxyribonuclease (DNase) was added and incubated for 30 minutes to remove the DNA template. After digestion, LiCl solution was added, precooled and centrifuged at 1,6000 rpm for 15 minutes to remove the supernatant. 70% ethanol was added and centrifuged to remove the supernatant again, and then a certain amount of enzyme-free water was added for storage. […] Table 2 amount (mg) of final product obtained per 1 mL of mRNA synthesis reaction system

T1 sequence (P00573 whole entry): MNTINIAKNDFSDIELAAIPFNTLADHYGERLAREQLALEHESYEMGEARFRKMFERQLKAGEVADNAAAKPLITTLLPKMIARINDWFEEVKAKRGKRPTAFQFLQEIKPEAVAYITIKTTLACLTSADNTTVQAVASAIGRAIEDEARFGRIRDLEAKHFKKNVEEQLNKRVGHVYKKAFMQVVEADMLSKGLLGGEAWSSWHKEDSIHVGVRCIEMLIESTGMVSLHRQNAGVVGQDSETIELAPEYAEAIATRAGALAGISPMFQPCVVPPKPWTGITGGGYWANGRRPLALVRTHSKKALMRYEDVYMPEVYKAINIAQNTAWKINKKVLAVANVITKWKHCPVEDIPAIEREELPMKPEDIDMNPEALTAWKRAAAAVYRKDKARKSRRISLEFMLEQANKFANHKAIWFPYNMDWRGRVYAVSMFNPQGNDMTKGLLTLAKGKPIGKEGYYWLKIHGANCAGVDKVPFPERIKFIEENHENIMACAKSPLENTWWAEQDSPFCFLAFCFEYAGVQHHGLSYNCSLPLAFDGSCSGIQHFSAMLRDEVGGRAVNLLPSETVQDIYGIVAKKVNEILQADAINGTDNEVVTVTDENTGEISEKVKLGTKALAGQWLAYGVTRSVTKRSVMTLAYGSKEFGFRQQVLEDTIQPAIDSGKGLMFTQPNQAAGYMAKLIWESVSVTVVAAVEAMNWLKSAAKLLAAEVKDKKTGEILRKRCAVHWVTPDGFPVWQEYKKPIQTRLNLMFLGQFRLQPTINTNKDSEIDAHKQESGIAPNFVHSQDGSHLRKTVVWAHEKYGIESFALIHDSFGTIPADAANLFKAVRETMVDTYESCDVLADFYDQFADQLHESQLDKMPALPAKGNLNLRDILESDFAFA

C[n+]1cn([C@@H]2O[C@H](COP(=O)(O)OP(=O)(O)OP(=O)(O)OC[C@H]3O[C@@H](n4cnc5c(N)ncnc54)[C@H](O)[C@@H]3OP(=O)(O)OC[C@H]3O[C@@H](n4cnc5c(=O)[nH]c(N)nc54)[C@H](F)[C@@H]3O)[C@@H](O)[C@H]2O)c2nc(N)[nH]c(=O)c21 [Compound 8]
Product amount: amount (mg) of final product obtained per 1 mL of mRNA synthesis reaction system: 4.7 mg

C[n+]1cn([C@@H]2O[C@H](COP(=O)(O)OP(=O)(O)OP(=O)(O)OC[C@H]3O[C@@H](n4ccc(=O)[nH]c4=O)[C@H](F)[C@@H]3OP(=O)(O)OC[C@H]3O[C@@H](n4cnc5c(=O)[nH]c(N)nc54)[C@H](F)[C@@H]3O)[C@@H](O)[C@H]2O)c2nc(N)[nH]c(=O)c21 [Compound 68]
Product amount: amount (mg) of final product obtained per 1 mL of mRNA synthesis reaction system: 5.8 mg
